Test results reported in PubChem BioAssay (NCI).
Several values for one entry are separate records, joined by “and”; a condition that tells them apart may be missing. Equal entries are not always repeated.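 Briefly, cells in 96-well plates were exposed to five compound concentrations for 48 h, and endpoints were estimated by linear interpolation. Here, GI50 denotes the concentration required for 50% inhibition of growth. TGI marks complete inhibition of growth.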

Legend:
Test in all cases: DTP human tumour cell line panel, 48 h
[1] = test system: A498 renal
[2] = test system: A549 NSCLC
[3] = test system: MALME-3M melanoma
[4] = test system: MCF7 breast
[5] = test system: OVCAR-4 ovarian
[6] = test system: SN12C renal
[7] = test system: SNB-75 CNS
[8] = test system: U251 CNS
[9] = test system: UACC-257 melanoma
[10] = test system: UACC-62 melanoma

Structure (SMILES): Nc1nc2ccc3[nH]ncc3c2c2c1CCCC2
- GI50 [1]: 1.64 µM
- TGI [1]: 3.49 µM
- GI50 [2]: 2.24 µM
- TGI [2]: 13.4 µM
- GI50 [3]: 2.36 µM
- TGI [3]: 5.13 µM
- GI50 [4]: 0.403 µM
- TGI [4]: 7.25 µM
- GI50 [5]: 3.6 µM
- TGI [5]: 7.92 µM
- GI50 [6]: 1.91 µM
- TGI [6]: 8.93 µM
- GI50 [7]: 1.36 µM
- TGI [7]: 2.71 µM
- GI50 [8]: 2.7 µM
- TGI [8]: 13.4 µM
- GI50 [9]: 3.28 µM
- TGI [9]: 11.6 µM
- GI50 [10]: 1.43 µM
- TGI [10]: 3.47 µM

Structure (SMILES): COc1cc(-c2csc(NC(=O)Nc3cc(C(F)(F)F)cc(C(F)(F)F)c3)n2)cc(OC)c1OC
- GI50 [1]: 1.11 µM
- TGI [1]: 5.08 µM
- GI50 [2]: 2.62 µM
- TGI [2]: 12.4 µM
- GI50 [3]: 2.15 µM
- TGI [3]: 7.32 µM
- GI50 [4]: 2.41 µM
- TGI [4]: 11.8 µM
- GI50 [5]: 2.68 µM
- TGI [5]: 17 µM
- GI50 [6]: 3 µM
- TGI [6]: 11.8 µM
- GI50 [7]: 2.27 µM
- TGI [7]: 10.6 µM
- GI50 [8]: 2.73 µM
- TGI [8]: 10.7 µM
- GI50 [10]: 1.59 µM
- TGI [10]: 4.53 µM

Structure (SMILES): CC1(C)CCC[C@]2(C)c3cc(O)ccc3CC[C@@H]12
- GI50 [1]: 16.2 µM
- TGI [1]: 29.7 µM
- GI50 [2]: 19 µM
- TGI [2]: 36.5 µM
- GI50 [4]: 13.3 µM
- TGI [4]: 37.1 µM
- GI50 [5]: 16.6 µM
- TGI [5]: 33.6 µM
- GI50 [6]: 17.5 µM
- TGI [6]: 31.3 µM
- GI50 [7]: 12.4 µM
- TGI [7]: 27.5 µM
- GI50 [8]: 14.6 µM
- TGI [8]: 29.1 µM
- GI50 [9]: 19.6 µM
- TGI [9]: 36 µM
- GI50 [10]: 13.1 µM
- TGI [10]: 25.8 µM

Structure (SMILES): Clc1cccc(N2CCN(CCN3CCc4c([nH]c5ccccc45)C3c3cccnc3)CC2)c1 (configuration not stated)
- TGI [1]: > 100 µM
- TGI [2]: > 100 µM
- TGI [3]: > 100 µM
- TGI [4]: > 100 µM
- TGI [5]: > 100 µM
- TGI [6]: > 92.2 µM
- TGI [7]: > 76.4 µM
- TGI [8]: > 100 µM
- TGI [9]: > 100 µM
- TGI [10]: > 100 µM

Structure (SMILES): N#C/C(=C\Nc1ccccn1)C(=O)c1ccco1
- TGI [1]: > 100 µM
- TGI [2]: > 100 µM
- TGI [3]: > 100 µM
- TGI [4]: > 100 µM
- TGI [5]: > 100 µM
- TGI [6]: > 100 µM
- TGI [7]: > 100 µM
- TGI [8]: > 100 µM
- TGI [9]: > 100 µM
- TGI [10]: > 100 µM

Structure (SMILES): Clc1ccc(C(c2ccc(Cl)cc2)N2CCNCC2)cc1
- TGI [1]: 4.2 µM
- TGI [2]: 8.4 µM
- TGI [3]: 3.12 µM
- TGI [4]: 3.86 µM
- TGI [5]: 6.95 µM
- TGI [6]: 8.52 µM
- TGI [7]: 5.78 µM
- TGI [8]: 4.2 µM
- TGI [9]: 4.62 µM
- TGI [10]: 3.55 µM

Structure (SMILES): O=C1C(Cl)=C(Nc2cccc(O)c2)C(=O)N1Cc1ccc(Cl)cc1
- GI50 [1]: 5 µM
- TGI [1]: 21.8 µM
- GI50 [2]: 5.22 µM
- TGI [2]: 37.4 µM
- GI50 [3]: 0.464 µM
- TGI [3]: 8.11 µM
- GI50 [4]: 2.75 µM
- TGI [4]: 14.6 µM
- GI50 [5]: 11.2 µM
- TGI [5]: > 100 µM
- GI50 [6]: 2.72 µM
- TGI [6]: 8.5 µM
- GI50 [8]: 1.86 µM
- TGI [8]: 26.9 µM
- GI50 [9]: 8.18 µM
- TGI [9]: 25 µM
- GI50 [10]: 1.27 µM
- TGI [10]: 4.79 µM

Structure (SMILES): CCOC(=O)NC1=C(N2CC2)C(=O)C(NC(=O)OCC)=C(N2CC2)C1=O
- GI50 [1]: 8.08 µM and 5.41 µM
- TGI [1]: 20.3 µM and 9.75 µM and 12.5 µM
- GI50 [2]: 6.46 µM and 1.64 µM and 3.09 µM
- TGI [2]: 25 µM and 43 µM and 40.2 µM
- GI50 [3]: 5.79 µM
- TGI [3]: 18 µM and 18.3 µM and 15.6 µM
- GI50 [4]: 6.33 µM
- TGI [4]: 25 µM and 21.3 µM
- GI50 [5]: 12.8 µM and 7 µM
- TGI [5]: 24 µM and 11.8 µM and 17.7 µM
- GI50 [6]: 3.3 µM and 3.06 µM
- TGI [6]: 25 µM and 14.2 µM and 7.15 µM
- GI50 [7]: 9.24 µM
- TGI [7]: 23.2 µM and 29.9 µM and 52 µM
- GI50 [8]: 3.91 µM
- TGI [8]: 20 µM and 10.8 µM and 9.77 µM
- GI50 [9]: 6.96 µM
- TGI [9]: 25 µM and 19.9 µM
- GI50 [10]: 1.75 µM
- TGI [10]: 12 µM and 4.37 µM and 1.74 µM

Structure (SMILES): O=c1oc(-c2ccccc2)cc2cccc(O)c12
- GI50 [1]: 21 µM
- TGI [1]: 48 µM
- GI50 [2]: 24.7 µM
- TGI [2]: > 64.6 µM
- GI50 [3]: 69.4 µM
- TGI [3]: > 100 µM
- GI50 [4]: > 28 µM
- TGI [4]: > 100 µM
- GI50 [5]: > 100 µM
- TGI [5]: > 100 µM
- GI50 [6]: 19.4 µM
- TGI [6]: 51.2 µM
- GI50 [7]: 24.4 µM
- TGI [7]: > 62.6 µM
- GI50 [8]: 18 µM
- TGI [8]: 35.1 µM
- GI50 [9]: > 71.9 µM
- TGI [9]: > 100 µM
- GI50 [10]: 24.5 µM
- TGI [10]: > 64.3 µM

Structure (SMILES): CN1C(=O)C(=Cc2cn(Cc3ccccc3)c3ccccc23)C(=O)N(C)C1=O
- GI50 [1]: 0.518 µM
- TGI [1]: 1.19 µM
- GI50 [2]: > 39.7 µM
- TGI [2]: > 100 µM
- GI50 [3]: 42.1 µM
- TGI [3]: > 100 µM
- GI50 [4]: 21.4 µM
- TGI [4]: > 100 µM
- GI50 [5]: 5.85 µM
- TGI [5]: > 100 µM
- GI50 [6]: 54.8 µM
- TGI [6]: > 100 µM
- GI50 [7]: 34.2 µM
- TGI [7]: > 100 µM
- GI50 [8]: 18.2 µM
- TGI [8]: > 71.3 µM
- GI50 [9]: 9.82 µM
- TGI [9]: > 100 µM
- GI50 [10]: 1.87 µM
- TGI [10]: > 35.3 µM

Structure (SMILES): Oc1ccc2ccccc2c1C1NN=C(c2ccccc2)S1 (configuration not stated)
- GI50 [1]: 1.34 µM
- TGI [1]: 14.1 µM
- GI50 [2]: 0.587 µM
- TGI [2]: 84.1 µM
- GI50 [3]: 1.56 µM
- TGI [3]: 21 µM
- GI50 [4]: 0.426 µM
- TGI [4]: 21.2 µM
- GI50 [5]: 0.515 µM
- TGI [5]: > 71.3 µM
- GI50 [6]: 0.61 µM
- TGI [6]: 35.7 µM
- GI50 [7]: 1.02 µM
- TGI [7]: 32.2 µM
- GI50 [8]: 0.461 µM
- TGI [8]: 48.5 µM
- GI50 [9]: 0.561 µM
- TGI [9]: 12 µM
- GI50 [10]: 0.362 µM
- TGI [10]: 6.3 µM

Structure (SMILES): COc1ccc([I+]c2ccccc2)cc1
- GI50 [1]: 1.9 µM
- TGI [1]: > 93.2 µM
- GI50 [2]: 4.38 µM
- TGI [2]: > 100 µM
- GI50 [3]: 7.8 µM
- TGI [3]: > 100 µM
- GI50 [4]: 5.69 µM
- TGI [4]: > 100 µM
- GI50 [5]: 1.34 µM
- TGI [5]: > 100 µM
- GI50 [6]: 40.3 µM
- TGI [6]: > 100 µM
- GI50 [7]: 14 µM
- TGI [7]: > 100 µM
- GI50 [8]: 7.94 µM
- TGI [8]: > 100 µM
- GI50 [9]: 8.81 µM
- TGI [9]: > 100 µM
- GI50 [10]: 37.2 µM
- TGI [10]: > 100 µM

Structure (SMILES): OC(C1CO1)C(O)C1CO1 (configuration not stated)
- GI50 [1]: 116 µM
- TGI [1]: 134 µM and 263 µM
- GI50 [2]: 16.5 µM and 8.67 µM
- TGI [2]: 150 µM and 235 µM
- TGI [3]: 125 µM and 263 µM
- GI50 [4]: 3.89 µM
- TGI [4]: 140 µM and 78.2 µM
- GI50 [5]: 134 µM
- TGI [5]: 150 µM and 299 µM
- GI50 [6]: 13.9 µM
- TGI [6]: 126 µM and 249 µM
- GI50 [7]: 32.2 µM
- TGI [7]: 116 µM and 166 µM
- GI50 [8]: 7.78 µM
- TGI [8]: 114 µM and 168 µM
- GI50 [9]: 56.1 µM
- TGI [9]: 141 µM and 244 µM
- TGI [10]: 72.1 µM and 130 µM

Structure (SMILES): CC1(C)N=C(N)N=C(N)N1c1ccc(CCc2ccc(Cl)cc2S(=O)(=O)F)c(Cl)c1
- GI50 [1]: 62.8 µM
- TGI [1]: > 100 µM
- GI50 [2]: 1.49 µM
- TGI [2]: > 100 µM
- GI50 [3]: 14.7 µM
- TGI [3]: 60.3 µM
- GI50 [4]: 3.64 µM
- TGI [4]: 18.9 µM
- GI50 [5]: 9.09 µM
- TGI [5]: 84.5 µM
- GI50 [6]: 7.98 µM
- TGI [6]: > 100 µM
- GI50 [7]: 8.44 µM
- TGI [7]: 27.3 µM
- GI50 [8]: 4.42 µM
- TGI [8]: 20.6 µM
- GI50 [9]: 9.6 µM
- TGI [9]: 27.5 µM
- GI50 [10]: 4.57 µM
- TGI [10]: 31.5 µM
